# Laboratory results published in US10766869B2, “Triazoles for the treatment of demyelinating dieases” (Vertex Pharmaceuticals Incorporated, priority 2015, dated 2020).
# Like-named read-outs stand apart in the source and are kept apart here.
# System: primary rat mixed cortical cells
# Assay: In vitro myelination assay (MBP positive myelin strands, fold myelin pixels above background)
# Assay type: cell-based
# Settings: Rattus norvegicus; for fold induction at 1 µM: 1.0 μM compound; for fold induction at 10 µM: 10.0 μM compound
# In short: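 Mixed cortical culture, P1 rat, 87,500-95,000 cells/well; compound present from seeding, refreshed days 6 and 10; 14 d, 37 °C, 5% CO2. Day 14: PFA fix, anti-MBP + Hoechst. Read-out: fold MBP myelin pixels over untreated, tested at 1.0 and 10.0 μM.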
# [1] = relative to baseline of no added compound, read-out: Fold myelin pixels above background
# [2] = relative to baseline of no added compound, read-out: Fold myelin pixels above background, 1.0 μM
# [3] = relative to baseline of no added compound, read-out: Fold myelin pixels above background, 10.0 μM
# [4] = read-out: Fold myelin pixels above background relative to baseline of no added compound
SMILES,fold induction at 1 µM [2],fold induction at 10 µM [3],other results
"N#Cc1cc(Nc2ncn(-c3cc(F)cc(F)c3)n2)cc(N2CCN(C3COC3)CC2)c1 [Compound 678, 3-[[1-(3,5-difluorophenyl)-1,2,4-triazol-3-yl]amino]-5-[4-(oxetan-3-yl)piperazin-1-yl]benzonitrile]",,,fold induction at 1 µM [1]: 10 to 100; fold induction at 10 µM [1]: 1 to 10
"Cc1cc(Nc2ncn(-c3cc(F)cc(Cl)c3)n2)cc(N2CCN(C3COC3)CC2)c1 [Compound 32, 1-(3-chloro-5-fluoro-phenyl)-N-[3-methyl-5-[4-(oxetan-3-yl)piperazin-1-yl]phenyl]-1,2,4-triazol-3-amine]",1000 to 10000,100 to 1000,
"Cc1cc(Nc2ncn(-c3ccccc3)n2)cc(N2CCN(C)C(=O)C2)c1 [Compound 76, 1-methyl-4-[3-methyl-5-[(1-phenyl-1,2,4-triazol-3-yl)amino]phenyl]piperazin-2-one]",100 to 1000,100 to 1000,
"FC(F)(F)c1cc(Nc2ncn(-c3ccccc3)n2)cc(N2CCOCC2)c1 [Compound 366, N-[3-morpholino-5-(trifluoromethyl)phenyl]-1-phenyl-1,2,4-triazol-3-amine]",1000 to 10000,1000 to 10000,
"CCOC(=O)CN1CCN(c2cc(C)cc(Nc3ncn(-c4cc(F)cc(F)c4)n3)c2)CC1 [Compound 72, ethyl 2-[4-[3-[[1-(3,5-difluorophenyl)-1,2,4-triazol-3-yl]amino]-5-methyl-phenyl]piperazin-1-yl]acetate]",10 to 100,1 to 10,
"Cc1cc(Nc2ncn(-c3ccnc(Cl)c3)n2)cc(N2CCCC2)c1 [Compound 42, 1-(2-chloro-4-pyridyl)-N-(3-methyl-5-pyrrolidin-1-yl-phenyl)-1,2,4-triazol-3-amine]",10 to 100,100 to 1000,
"Cc1cc(NC2(C)COC2)cc(Nc2ncn(-c3cc(F)cc(F)c3)n2)c1F [Compound 1016, N3-[1-(3,5-difluorophenyl)-1,2,4-triazol-3-yl]-4-fluoro-5-methyl-N1-(3-methyloxetan-3-yl)benzene-1,3-diamine]",,,fold induction at 1 µM [4]: 10 to 100; fold induction at 10 µM [4]: 1 to 10
"N#Cc1cc(Nc2ncn(-c3ccc(F)c(F)c3)n2)nc(N2CCN(C3COC3)CC2)c1 [Compound 607, 2-[[1-(3,4-difluorophenyl)-1,2,4-triazol-3-yl]amino]-6-[4-(oxetan-3-yl)piperazin-1-yl]pyridine-4-carbonitrile]",,,fold induction at 1 µM [1]: 10 to 100; fold induction at 10 µM [1]: 10 to 100
"Cc1cc(Nc2ncn(-c3cc(F)cc(F)c3)n2)cc(N2CCN3CCC[C@@H]3C2)c1 [Compound 128, N-[3-[(8aR)-3,4,6,7,8,8a-hexahydro-1H-pyrrolo[1,2-a]pyrazin-2-yl]-5-methyl-phenyl]-1-(3,5-difluorophenyl)-1,2,4-triazol-3-amine]",10 to 100,10 to 100,
"CC(=O)N1CCC(c2cc(C)cc(Nc3ncn(-c4cc(F)cc(F)c4)n3)c2)CC1 [Compound 90, 1-[4-[3-[[1-(3,5-difluorophenyl)-1,2,4-triazol-3-yl]amino]-5-methyl-phenyl]-1-piperidyl]ethanone]",100 to 1000,1 to 10,
"Fc1ccc(-n2cnc(Nc3cc(F)cc(N4CCCC4)c3)n2)cc1 [Compound 167, 1-(4-fluorophenyl)-N-(3-fluoro-5-pyrrolidin-1-yl-phenyl)-1,2,4-triazol-3-amine]",≤ 1,100 to 1000,
"CCc1cc(Nc2ncn(-c3ccc(C)c(Cl)c3)n2)cc(N2CCN(C3COC3)CC2)c1 [Compound 715, 1-(3-chloro-4-methyl-phenyl)-N-[3-ethyl-5-[4-(oxetan-3-yl)piperazin-1-yl]phenyl]-1,2,4-triazol-3-amine]",,,fold induction at 1 µM [1]: 10 to 100; fold induction at 10 µM [1]: 1 to 10
"CCc1cc(Nc2ncn(-c3ccccc3)n2)cc(N2CCN(C3COC3)CC2)c1 [Compound 330, N-[3-ethyl-5-[4-(oxetan-3-yl)piperazin-1-yl]phenyl]-1-phenyl-1,2,4-triazol-3-amine]",1000 to 10000,≤ 1,
